Source: the NIST ThermoML archive (doi:10.1016/j.tca.2015.02.020)
± gives the expanded uncertainty stated by the source.

Test: molar heat capacity at constant pressure; xn = mol fraction of the nth substance listed
Settings: 101 kPa, Glass, Small sample (50 mg) DSC

CC(O)CN (stereo not given) [1-amino-2-propanol] + O
Settings | molar heat capacity at constant pressure [J/K/mol]
126.79 K, x1 = 0.15 | 27.11 ± 5.3
126.79 K, x1 = 0.16 | 28.24 ± 5.7
126.94 K, x1 = 0.19 | 28.86 ± 5.8
127.55 K, x1 = 0.19 | 28.57 ± 1.2
127.56 K, x1 = 0.26 | 32.53 ± 1.3
127.57 K, x1 = 0.26 | 32.86 ± 6.6
127.69 K, x1 = 0.15 | 27.64 ± 1.1
127.71 K, x1 = 0.16 | 27.96 ± 1.1
127.73 K, x1 = 0.68 | 51.16 ± 2.3
127.76 K, x1 = 0.68 | 51.16 ± 10
130.83 K, x1 = 0.19 | 29.15 ± 1.2
130.83 K, x1 = 0.26 | 33.19 ± 1.3
130.96 K, x1 = 0.15 | 28.71 ± 1.3
130.98 K, x1 = 0.16 | 28.51 ± 1.4
131 K, x1 = 0.68 | 52.86 ± 2.3
131.45 K, x1 = 0.15 | 28.71 ± 5.8
131.45 K, x1 = 0.16 | 30.14 ± 6
131.61 K, x1 = 0.19 | 30.31 ± 6.1
132.23 K, x1 = 0.26 | 34.17 ± 6.9
132.42 K, x1 = 0.68 | 52.29 ± 10
134.1 K, x1 = 0.19 | 29.73 ± 1.2
134.1 K, x1 = 0.26 | 33.85 ± 1.3
134.24 K, x1 = 0.15 | 29.5 ± 1.3
134.25 K, x1 = 0.16 | 29.05 ± 1.4
134.27 K, x1 = 0.68 | 54 ± 2.3
136.13 K, x1 = 0.15 | 30.3 ± 6.1
136.13 K, x1 = 0.16 | 31.77 ± 6.2
136.28 K, x1 = 0.19 | 32.04 ± 6.3
136.9 K, x1 = 0.26 | 35.49 ± 7.2
137.09 K, x1 = 0.68 | 54.57 ± 11
140.66 K, x1 = 0.19 | 31.17 ± 1.4
140.66 K, x1 = 0.26 | 35.49 ± 1.6
140.8 K, x1 = 0.15 | 30.83 ± 1.3
140.8 K, x1 = 0.16 | 33.39 ± 6.8
140.81 K, x1 = 0.15 | 31.63 ± 6.4
140.81 K, x1 = 0.16 | 30.41 ± 1.4
140.83 K, x1 = 0.68 | 56.27 ± 2.3
140.96 K, x1 = 0.19 | 32.9 ± 6.6
141.59 K, x1 = 0.26 | 36.8 ± 7.2
141.77 K, x1 = 0.68 | 55.7 ± 11
143.95 K, x1 = 0.19 | 31.75 ± 1.4
143.95 K, x1 = 0.26 | 36.15 ± 1.6
144.09 K, x1 = 0.15 | 31.63 ± 1.3
144.1 K, x1 = 0.16 | 30.95 ± 1.4
144.11 K, x1 = 0.68 | 57.41 ± 2.3
145.5 K, x1 = 0.16 | 34.75 ± 7.1
145.65 K, x1 = 0.19 | 34.35 ± 6.9
146.28 K, x1 = 0.26 | 38.12 ± 7.6
146.29 K, x1 = 0.15 | 33.22 ± 6.6
146.45 K, x1 = 0.68 | 56.84 ± 11
150.19 K, x1 = 0.16 | 36.11 ± 7.3
150.34 K, x1 = 0.19 | 35.5 ± 7.2
150.53 K, x1 = 0.19 | 33.48 ± 1.4
150.53 K, x1 = 0.26 | 38.12 ± 1.6
150.67 K, x1 = 0.15 | 33.22 ± 1.3
150.68 K, x1 = 0.16 | 32.31 ± 1.4
150.69 K, x1 = 0.68 | 59.68 ± 2.3
150.97 K, x1 = 0.26 | 39.1 ± 7.9
150.99 K, x1 = 0.15 | 34.29 ± 6.9
151.15 K, x1 = 0.68 | 57.98 ± 11
153.82 K, x1 = 0.19 | 34.06 ± 1.4
153.82 K, x1 = 0.26 | 39.1 ± 1.6
153.96 K, x1 = 0.15 | 34.02 ± 1.6
153.98 K, x1 = 0.16 | 33.12 ± 1.4
153.98 K, x1 = 0.68 | 60.82 ± 2.8
